Test results taken from patent publication US9468604B2, “Pharmaceutical compositions of dispersions of drug and neutral polymers” (Bend Research, Inc., priority 2001, dated 2016).

Experiments:
Type in all cases: physicochemical
[1] = In vitro dissolution test of Drug 4 compositions in PBS; settings: for AUC / [Drug 4]: Table 25; for AUC / AUC90 / Cmax90: Drug 4, PBS; for [Drug 4]: PBS; for AUC90 / Cmax90: 0 to 90 min
Experimental: (§1) For Control C2, the crystalline form of the drug alone was used without further processing. […] The tubes were placed in a 37° C. temperature-controlled bath, and 1.8 mL phosphate buffered saline (PBS) at pH 6.5 and 290 mOsm/kg was added to each. The samples were quickly mixed using a vortex mixer for about 60 seconds. The samples were centrifuged at 13,000 G at 37° C. for 1 minute. The resulting supernatant solutions were then sampled and diluted 1:6 (by volume) with methanol and then analyzed by high-performance liquid chromatography (HPLC). The contents of the tubes were mixed on the vortex mixer and allowed to stand undisturbed at 37° C. until the next sample was taken. Samples were collected at 4, 10, 20, 40, 90, and 1200 minutes.
In vitro dissolution tests were performed for Examples 25-27 using the procedure described in Example 4, with the following exceptions: 14.4 mg each of the dispersions of Examples 25-27 were added to separate, respective centrifuge tubes. 1.8 mL PBS was added to each tube. For comparison, Control C11 was prepared consisting of 3.6 mg of crystalline Drug 4 added to 1.8 mL PBS. Drug 4 concentration in the samples was determined using HPLC. A Zorbax SB C18 HPLC column was used with a mobile phase of 35 vol. % water and 65 vol. % methanol. UV detection was measured at 297 nm.
(§2) In vitro dissolution tests were performed for Examples 35-38, using the procedures described in Example 4, with the following exceptions: 14.4 mg each of Example 35 and 36 were added to separate respective test tubes to which 1.8 mL of PBS solution was added, so that the total theoretical Drug 4 concentration was approximately 200 μg/mL if all of Drug 4 were to dissolve completely; 3.6 mg each of Examples 37 and 38 were added in separate respective test tubes to 1.8 mL of MFD solution, to provide a total theoretical Drug 5 concentration of approximately 20 μg/mL if all of Drug 5 were to dissolve completely. Drug 4 concentration in the samples was determined as in Example 33. Drug 5 concentration in the samples was determined as in Example 34.

[2] = In vitro dissolution test of Drug 5 compositions in MFD solution; set-up: AUC90: concentration or dose not given beside the values; settings: for AUC / Drug 5 Concentration: Table 27; for AUC / AUC90 / Cmax90: Drug 5, MFD solution; for Drug 5 Concentration: MFD solution; for AUC90 / Cmax90: 0 to 90 min
Experimental: as §1
In vitro dissolution tests were performed for Examples 28-29, using the procedure described in Example 4, with the following exceptions: 9 mg each of the dispersions of Examples 28-29 were added to separate respective centrifuge tubes. 1.8 mL of MFD solution was then added to each tube. For comparison, Control C12 was prepared consisting of 0.36 mg of crystalline Drug 5 added to 1.8 mL of MFD solution for a total theoretical concentration of 200 μg/mL if all of the drug dissolved. Drug 5 concentration in the samples was determined using HPLC. A Waters Symmetry C18 HPLC column was used with a mobile phase of 50 vol. % (0.3 vol. % glacial acetic acid, 0.2 vol. % TEA in water) and 50 vol. % acetonitrile. UV detection was measured at 260 nm.
as §2

[3] = In vitro dissolution test of Drug 3 compositions in MFD solution; set-up: AUC / AUC90: concentration or dose not given beside the values; settings: for Drug 3: MFD solution, 37° C.
Experimental: as §1
Dissolution tests were performed, as described in Example 4 with the following exceptions: samples were tested in MFD Solution, and 1.8 mg of dispersion was added to 1.8 mLs of MFD Solution. Control C9 was simply 0.18 mg of the crystalline Drug 3 alone add to 1.8 mL of MFD solution.

[4] = In vitro dissolution test of Drug 2 compositions in MFD solution; set-up: AUC / AUC90: concentration or dose not given beside the values; settings: for Drug 2: MFD solution, 37° C.
Experimental: as §1
This example measures' the concentration-enhancing properties of the PVP dispersion of Example 14. Dissolution tests were performed, as described in Example 4 with the following exceptions: the PBS solution contained 7.3 mM sodium taurocholic acid and 1.4 mM 1-palmitoyl-2-oleyl-sn-glycero-3-phosphocholine (model fasted duodenal (MFD) solution). 1.8 mg of dispersion was added to 1.8 mL of test media. For Control C6, 0.18 mg of the crystalline form of the Drug 2 alone was used without further processing and added to 1.8 mL of MFD solution.

[5] = Drug 3, MFD solution, 0 to 90 min
[6] = Drug 2, MFD solution, 0 to 90 min

For O=C(N[C@@H](Cc1ccccc1)[C@@H](O)C(=O)N1C[C@@H](O)[C@@H](O)C1)c1cc2cc(Cl)ccc2[nH]1 [Example C11, 5-chloro-1H-indole-2-carboxylic acid [(1S)-benzyl-3-((3R,4S)-dihydroxypyrrolidin-1-yl)-(2R)-hydroxy-3-oxypropyl]amide], the AUC ([1]; time 0 min) was 0 µg·min/mL, the AUC ([1]; time 4 min) was 300 µg·min/mL and the AUC ([1]; time 10 min) was 1,000 min*μg/mL. For the same compound, the AUC ([1]; time 20 min) was 2,200 min*μg/mL, the AUC ([1]; time 40 min) was 4,500 min*μg/mL and the AUC ([1]; time 90 min) was 10,300 min*μg/mL. For the same compound, the AUC ([1]; time 1200 min) was 120,200 min*μg/mL, the “[Drug 4]” value ([1]; time 0 min) was 0 µg/mL and the “[Drug 4]” value ([1]; time 4 min) was 131 µg/mL. For the same compound, the “[Drug 4]” value ([1]; time 10 min) was 114 µg/mL, the “[Drug 4]” value ([1]; time 20 min) was 124 µg/mL and the “[Drug 4]” value ([1]; time 40 min) was 107 µg/mL. For the same compound, the “[Drug 4]” value ([1]; time 90 min) was 126 µg/mL, the “[Drug 4]” value ([1]; time 1200 min) was 72 µg/mL and the AUC90 ([1]; Table 26) was 10,300 min*μg/mL. For the same compound, the Cmax90 ([1]; Table 26) was 131000 ng/mL, the Cmax90 ([1]; Table 31) was 131000 ng/mL and the AUC90 ([1]; Table 31, in min·µg/mL) was 10,300.
An AUC ([2]; time 0 min) of 0 µg·min/mL, an AUC ([2]; time 4 min) of 0 µg·min/mL and an AUC ([2]; time 10 min) of 100 µg·min/mL were found for NC(=O)N(O)C1C=C(c2cccc(Oc3ccc(F)cc3)c2)CC1 (single isomer, unassigned; (+)) [Example C12, (+)-N-{3-[3-(4-fluorophenoxy)phenyl]-2-cyclopenten-1-yl}-N-hydroxyurea] in this work. For the same compound, the AUC ([2]; time 20 min) was 300 µg·min/mL, the AUC ([2]; time 40 min) was 800 µg·min/mL and the AUC ([2]; time 90 min) was 2,200 min*μg/mL. The AUC ([2]; time 1200 min) was 43,300 min*μg/mL, the “Drug 5 Concentration” value ([2]; time 0 min) was 0 µg/mL and the “Drug 5 Concentration” value ([2]; time 4 min) was 9 µg/mL. For the same compound, the “Drug 5 Concentration” value ([2]; time 10 min) was 15 µg/mL, the “Drug 5 Concentration” value ([2]; time 20 min) was 21 µg/mL and the “Drug 5 Concentration” value ([2]; time 40 min) was 27 µg/mL. For the same compound, the “Drug 5 Concentration” value ([2]; time 90 min) was 32 µg/mL, the “Drug 5 Concentration” value ([2]; time 1200 min) was 42 µg/mL and the AUC90 ([2]; Table 28) was 2,200 min*μg/mL. The Cmax90 ([2]; Table 28) was 32000 ng/mL, the Cmax90 ([2]; Table 32) was 32000 ng/mL and the AUC90 ([2]; Table 32, in min·µg/mL) was 2,200.
An AUC90 [3, 5] of 900 µg·min/mL, a Cmax90 [3, 5] of 13000 ng/mL and an AUC ([3]; Drug 3, MFD solution, time 0 min) of 0 min*µg/mL were found for O=C(NC(Cc1ccccc1)C(O)CC(C(=O)NO)C1(O)CCC(F)(F)CC1)c1cnc2ccccc2n1 (stereo not shown) [Example C9, quinoxaline-2-carboxylic acid [1-benzyl-4-(4,4-difluoro-1-hydroxy-cyclohexyl)-2-hydroxy-4-hydroxycarbamoyl-butyl]-amide] in this work. For the same compound, the AUC ([3]; Drug 3, MFD solution, time 4 min) was 0 min*µg/mL, the AUC ([3]; Drug 3, MFD solution, time 10 min) was 0 min*µg/mL and the AUC ([3]; Drug 3, MFD solution, time 20 min) was 100 min*µg/mL. The AUC ([3]; Drug 3, MFD solution, time 40 min) was 300 min*µg/mL, the AUC ([3]; Drug 3, MFD solution, time 90 min) was 900 min*µg/mL and the “Drug 3” value ([3]; time 0 min) was 0 µg/mL. The “Drug 3” value ([3]; time 4 min) was 4 µg/mL, the “Drug 3” value ([3]; time 10 min) was 6 µg/mL and the “Drug 3” value ([3]; time 20 min) was 8 µg/mL. For the same compound, the “Drug 3” value ([3]; time 40 min) was 11 µg/mL and the “Drug 3” value ([3]; time 90 min) was 13 µg/mL.
An AUC90 [4, 6] of 400 µg·min/mL, a Cmax90 [4, 6] of 7000 ng/mL and an AUC ([4]; Drug 2, MFD solution, time 0 min) of 0 min*µg/mL were found for O=C(NC(Cc1ccccc1)C(O)CC(C(=O)NO)C1CCC(F)(F)CC1)c1cnc2ccccc2n1 (stereo not shown) [Example C6, quinoxaline-2-carboxylic acid [1-benzyl-4-(4,4-difluoro-cyclohexyl)-2-hydroxy-4-hydroxycarbamoyl-butyl]-amide] in this work. The AUC ([4]; Drug 2, MFD solution, time 4 min) was 0 min*µg/mL, the AUC ([4]; Drug 2, MFD solution, time 10 min) was 0 min*µg/mL and the AUC ([4]; Drug 2, MFD solution, time 20 min) was 100 min*µg/mL. The AUC ([4]; Drug 2, MFD solution, time 40 min) was 100 min*µg/mL, the AUC ([4]; Drug 2, MFD solution, time 90 min) was 400 min*µg/mL and the “Drug 2” value ([4]; time 0 min) was 0 µg/mL. For the same compound, the “Drug 2” value ([4]; time 4 min) was 2 µg/mL, the “Drug 2” value ([4]; time 10 min) was 4 µg/mL and the “Drug 2” value ([4]; time 20 min) was 4 µg/mL. For the same compound, the “Drug 2” value ([4]; time 40 min) was 4 µg/mL and the “Drug 2” value ([4]; time 90 min) was 7 µg/mL.
